From US20110059956A1, “THERAPEUTIC AGENT FOR PAIN” (ZERIA PHARMACEUTICAL CO., LTD., priority 2008, published 2011)
Structures can show the parent of a compound that is named as a salt. Where two headings read alike, the source gives them in different places.

What was measured:
[1] = system: thermal hyperalgesia; conditions: Non-Patent Document 12; cited from earlier work
[2] = system: nociceptive pain triggered by formalin; conditions: cited from earlier work; for analgesic effect, sole use: Non-Patent Document 11
[3] = system: cancer pain; conditions: clinical, combination with morphine; Non-Patent Document 10; cited from earlier work
[4] = system: allodynia in B16-BL6 melanoma cancer pain model; assay: cancer pain model (B16-BL6 melanoma transplanted into paw), von Frey pain threshold, single administration; type: in vivo, mouse; conditions: peroral single administration 100 mg/kg on day 14 after cancer transplantation; FIG. 1
Source text: Then, the change in pain threshold was monitored. Compound (A1) was suspended in 0.5% CMC-Na solution before administration.

[5] = system: pancreatic cancer; conditions: Non-Patent Document 15, cited from earlier work
[6] = system: nociceptive pain caused by thermal stimulation; conditions: cited from earlier work; for generation of morphine resistance: mouse, thermal stimulation, Non-Patent Documents 5 and 6
[7] = system: neuropathic pain; conditions: cited from earlier work
[8] = system: nociceptive pain caused by thermal stimulation; conditions: Non-Patent Document 7, cited from earlier work
[9] = system: allodynia in B16-BL6 melanoma cancer pain model; assay: cancer pain model (B16-BL6 melanoma), von Frey pain threshold, repeated administration; type: in vivo, mouse; conditions: 100 mg/kg orally once a day for eight days from day 7 after cancer transplantation; FIG. 2
Procedure: From day 7 after cancer transplantation, compound (A1) or L-365,260 (CCK2 receptor antagonist) (100 mg/kg) was orally administered once a day for eight days repeatedly, and the change in pain threshold was monitored. […] On day 7 after cancer transplantation, allodynia occurred, and a considerable drop in pain threshold occurred on day 14 after cancer transplantation.

In the case of Cc1cccc(NC(=O)N[C@@H]2N=C(c3ccccc3)c3ccccc3N(CC(=O)c3ccccc3C)C2=O)c1 [YM022], the “analgesic effect, sole use, on thermal hyperalgesia” value [1] is given as “an analgesic effect”.

For CCCN(CCC)C(=O)C(CCC(=O)O)NC(=O)c1ccccc1 (stereo not drawn) [proglumide], the “analgesic effect, sole use” value [2] is listed as “exhibits the analgesic effect”, the “analgesic effect of morphine on cancer pain” value [3] is listed as “potentiates the analgesic effect of morphine” and the “change in pain threshold / improvement of allodynia” value [4] is listed as “no effect on improvement of allodynia”.

For Nc1ccn([C@@H]2O[C@H](CO)[C@@H](O)C2(F)F)c(=O)n1 [gemcitabine hydrochloride], the pain relief effect ([5]; pancreatic cancer patients) is given as “excellent pain relief effect” and the tumor regression effect ([5]; pancreatic cancer) is given as “comparatively weak tumor regression effect”.

For Cc1cccc(NC(=O)N[C@@H]2N=C(c3ccccc3)c3ccccc3N(C)C2=O)c1 [L-365,260], the “generation of morphine resistance” value [6] is given as “suppress generation of morphine resistance”, the “analgesic effect, single use” value ([6]; single use, Non-Patent Document 13) is given as “exhibits no analgesic effect” and the “analgesic effect, sole use” value [2] is given as “exhibits the analgesic effect”. The “analgesic effect of morphine on allodynia” value ([7]; combination with morphine, Non-Patent Document 9) was “potentiates the analgesic effect of morphine”, the “generation of morphine resistance” value ([7]; rat neuropathic pain model, Non-Patent Document 4) was “suppress generation of morphine resistance” and the “analgesic effect, single use” value ([7]; single use, Non-Patent Document 9) was “exhibits no analgesic effect”. For the same compound, the “analgesic effect of morphine on nociceptive pain” value ([8]; combination with morphine) was “potentiates the analgesic effect of morphine”, the “analgesic effect, single use” value ([8]; single use) was “exhibits no analgesic effect” and the “change in pain threshold / improvement of allodynia” value [4] was “no effect on improvement of allodynia”. The “change in pain threshold / improvement of allodynia” value [9] was “no effect on improvement of allodynia was observed”.

For C[C@](Cc1c[nH]c2ccccc12)(NC(=O)OC1[C@H]2C[C@@H]3C[C@@H](C[C@H]1C3)C2)C(=O)NC[C@H](NC(=O)CCC(=O)O)c1ccccc1 (stereo partly drawn) [CI-988], the “generation of morphine resistance” value [6] is given as “suppress generation of morphine resistance” and the “analgesic effect of morphine on nociceptive pain” value ([2]; combination with morphine, Non-Patent Document 8) is given as “potentiates the analgesic effect of morphine”.
